Our source for the IC50 values is BindingDB's records for doi:10.1016/j.bmcl.2009.03.136 (Central Drug Research Institute, 2009).

In general, IC50 refers to the midpoint of a concentration-inhibition curve. Lower therefore signals inhibition by little substance.

This experiment can be described thus: Inhibition of rat intestinal alpha-glucosidase.

As for `COc1ccc(C=CC(=O)C[C@@H]2O[C@H](CO)[C@@H](O)[C@H](O)[C@H]2O)cc1OC` [(E)-4-(3,4-dimethoxyphenyl)-1-((2S,3R,4R,5S,6R)-3,4,5-trihydroxy-6-(hydroxymethyl)tetrahydro-2H-pyran-2-yl)but-3-en-2-one], the half-inhibitory concentration (IC50) was 51.5 µM.
